{"source": "paper doi:10.1101/2025.03.14.643404", "about": "“A Bivalent Molecular Glue Linking Lysine Acetyltransferases to Oncogene-induced Cell Death” (bioRxiv, 2025)", "target": "T1, FLAG-tagged BCL6 (Homo sapiens, UniProt P41182+Q09472+Q92793)", "T1 construct": "endogenous in cells; host or cells: SUDHL5, CRISPR genomic knock-in at the BCL6 stop codon", "T1 sequence (Q92793 2-2442 limits assumed, other chains not shown)": "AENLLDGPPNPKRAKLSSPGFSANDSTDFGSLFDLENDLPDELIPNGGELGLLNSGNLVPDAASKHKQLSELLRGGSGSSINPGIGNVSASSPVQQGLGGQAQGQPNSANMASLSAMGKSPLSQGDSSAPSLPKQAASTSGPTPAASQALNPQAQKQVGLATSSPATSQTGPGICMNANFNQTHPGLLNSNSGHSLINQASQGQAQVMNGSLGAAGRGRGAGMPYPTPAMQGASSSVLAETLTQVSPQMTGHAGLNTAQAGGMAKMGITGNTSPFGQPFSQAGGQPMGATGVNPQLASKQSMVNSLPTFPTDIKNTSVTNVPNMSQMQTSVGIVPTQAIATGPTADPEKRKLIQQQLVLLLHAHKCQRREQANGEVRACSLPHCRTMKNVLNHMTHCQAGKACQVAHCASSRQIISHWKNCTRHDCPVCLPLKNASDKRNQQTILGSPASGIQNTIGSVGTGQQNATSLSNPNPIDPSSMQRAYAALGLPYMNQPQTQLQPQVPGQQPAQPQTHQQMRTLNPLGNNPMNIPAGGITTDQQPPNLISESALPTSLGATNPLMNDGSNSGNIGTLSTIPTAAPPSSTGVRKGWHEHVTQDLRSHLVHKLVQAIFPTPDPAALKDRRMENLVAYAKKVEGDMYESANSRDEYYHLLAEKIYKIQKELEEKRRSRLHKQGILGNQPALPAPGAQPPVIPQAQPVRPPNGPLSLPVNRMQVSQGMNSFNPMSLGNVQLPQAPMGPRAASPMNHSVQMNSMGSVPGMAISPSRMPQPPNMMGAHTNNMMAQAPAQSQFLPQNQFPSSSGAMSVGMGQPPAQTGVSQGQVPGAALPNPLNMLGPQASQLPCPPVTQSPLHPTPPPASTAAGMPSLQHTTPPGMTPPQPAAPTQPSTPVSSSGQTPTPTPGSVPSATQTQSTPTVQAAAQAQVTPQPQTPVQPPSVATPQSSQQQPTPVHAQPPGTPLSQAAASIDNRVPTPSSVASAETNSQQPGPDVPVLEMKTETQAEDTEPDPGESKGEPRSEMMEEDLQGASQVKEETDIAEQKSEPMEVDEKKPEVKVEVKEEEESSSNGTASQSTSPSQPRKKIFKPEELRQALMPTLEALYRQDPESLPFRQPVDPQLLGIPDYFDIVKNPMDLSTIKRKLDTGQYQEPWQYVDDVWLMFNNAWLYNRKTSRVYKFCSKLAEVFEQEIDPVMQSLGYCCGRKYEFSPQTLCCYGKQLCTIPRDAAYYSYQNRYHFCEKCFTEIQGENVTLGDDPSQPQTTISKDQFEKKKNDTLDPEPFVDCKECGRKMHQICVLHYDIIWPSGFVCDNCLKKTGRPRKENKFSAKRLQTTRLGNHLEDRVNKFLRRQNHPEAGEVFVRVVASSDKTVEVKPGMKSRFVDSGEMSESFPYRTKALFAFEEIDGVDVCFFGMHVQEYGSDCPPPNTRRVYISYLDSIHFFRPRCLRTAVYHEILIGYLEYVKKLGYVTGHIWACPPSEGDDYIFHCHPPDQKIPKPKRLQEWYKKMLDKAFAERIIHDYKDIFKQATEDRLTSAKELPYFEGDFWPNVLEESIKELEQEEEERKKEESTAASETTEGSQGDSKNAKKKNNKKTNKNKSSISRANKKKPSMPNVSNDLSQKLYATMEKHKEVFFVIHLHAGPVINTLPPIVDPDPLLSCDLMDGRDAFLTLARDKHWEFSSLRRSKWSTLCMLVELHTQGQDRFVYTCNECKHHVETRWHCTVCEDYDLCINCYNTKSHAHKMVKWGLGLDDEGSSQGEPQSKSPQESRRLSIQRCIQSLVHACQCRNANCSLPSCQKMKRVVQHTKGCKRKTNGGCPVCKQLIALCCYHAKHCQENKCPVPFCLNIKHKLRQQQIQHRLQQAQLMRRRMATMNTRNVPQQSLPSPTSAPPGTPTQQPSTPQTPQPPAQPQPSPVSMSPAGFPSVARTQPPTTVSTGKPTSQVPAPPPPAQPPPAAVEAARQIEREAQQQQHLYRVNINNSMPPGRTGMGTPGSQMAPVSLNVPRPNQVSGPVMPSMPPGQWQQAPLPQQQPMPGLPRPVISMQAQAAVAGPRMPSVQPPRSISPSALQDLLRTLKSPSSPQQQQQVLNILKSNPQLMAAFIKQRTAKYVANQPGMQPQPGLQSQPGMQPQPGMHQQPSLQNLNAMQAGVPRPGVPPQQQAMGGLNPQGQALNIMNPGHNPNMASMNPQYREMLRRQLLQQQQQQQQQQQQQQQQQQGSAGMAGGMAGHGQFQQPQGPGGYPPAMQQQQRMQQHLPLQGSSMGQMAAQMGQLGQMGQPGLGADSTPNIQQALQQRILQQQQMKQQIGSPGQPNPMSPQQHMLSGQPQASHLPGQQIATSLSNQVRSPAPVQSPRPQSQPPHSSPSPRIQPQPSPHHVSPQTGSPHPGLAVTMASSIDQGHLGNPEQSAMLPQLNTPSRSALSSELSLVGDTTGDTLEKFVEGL", "T1 sequence (Q09472 2-2414 limits assumed, other chains not shown)": "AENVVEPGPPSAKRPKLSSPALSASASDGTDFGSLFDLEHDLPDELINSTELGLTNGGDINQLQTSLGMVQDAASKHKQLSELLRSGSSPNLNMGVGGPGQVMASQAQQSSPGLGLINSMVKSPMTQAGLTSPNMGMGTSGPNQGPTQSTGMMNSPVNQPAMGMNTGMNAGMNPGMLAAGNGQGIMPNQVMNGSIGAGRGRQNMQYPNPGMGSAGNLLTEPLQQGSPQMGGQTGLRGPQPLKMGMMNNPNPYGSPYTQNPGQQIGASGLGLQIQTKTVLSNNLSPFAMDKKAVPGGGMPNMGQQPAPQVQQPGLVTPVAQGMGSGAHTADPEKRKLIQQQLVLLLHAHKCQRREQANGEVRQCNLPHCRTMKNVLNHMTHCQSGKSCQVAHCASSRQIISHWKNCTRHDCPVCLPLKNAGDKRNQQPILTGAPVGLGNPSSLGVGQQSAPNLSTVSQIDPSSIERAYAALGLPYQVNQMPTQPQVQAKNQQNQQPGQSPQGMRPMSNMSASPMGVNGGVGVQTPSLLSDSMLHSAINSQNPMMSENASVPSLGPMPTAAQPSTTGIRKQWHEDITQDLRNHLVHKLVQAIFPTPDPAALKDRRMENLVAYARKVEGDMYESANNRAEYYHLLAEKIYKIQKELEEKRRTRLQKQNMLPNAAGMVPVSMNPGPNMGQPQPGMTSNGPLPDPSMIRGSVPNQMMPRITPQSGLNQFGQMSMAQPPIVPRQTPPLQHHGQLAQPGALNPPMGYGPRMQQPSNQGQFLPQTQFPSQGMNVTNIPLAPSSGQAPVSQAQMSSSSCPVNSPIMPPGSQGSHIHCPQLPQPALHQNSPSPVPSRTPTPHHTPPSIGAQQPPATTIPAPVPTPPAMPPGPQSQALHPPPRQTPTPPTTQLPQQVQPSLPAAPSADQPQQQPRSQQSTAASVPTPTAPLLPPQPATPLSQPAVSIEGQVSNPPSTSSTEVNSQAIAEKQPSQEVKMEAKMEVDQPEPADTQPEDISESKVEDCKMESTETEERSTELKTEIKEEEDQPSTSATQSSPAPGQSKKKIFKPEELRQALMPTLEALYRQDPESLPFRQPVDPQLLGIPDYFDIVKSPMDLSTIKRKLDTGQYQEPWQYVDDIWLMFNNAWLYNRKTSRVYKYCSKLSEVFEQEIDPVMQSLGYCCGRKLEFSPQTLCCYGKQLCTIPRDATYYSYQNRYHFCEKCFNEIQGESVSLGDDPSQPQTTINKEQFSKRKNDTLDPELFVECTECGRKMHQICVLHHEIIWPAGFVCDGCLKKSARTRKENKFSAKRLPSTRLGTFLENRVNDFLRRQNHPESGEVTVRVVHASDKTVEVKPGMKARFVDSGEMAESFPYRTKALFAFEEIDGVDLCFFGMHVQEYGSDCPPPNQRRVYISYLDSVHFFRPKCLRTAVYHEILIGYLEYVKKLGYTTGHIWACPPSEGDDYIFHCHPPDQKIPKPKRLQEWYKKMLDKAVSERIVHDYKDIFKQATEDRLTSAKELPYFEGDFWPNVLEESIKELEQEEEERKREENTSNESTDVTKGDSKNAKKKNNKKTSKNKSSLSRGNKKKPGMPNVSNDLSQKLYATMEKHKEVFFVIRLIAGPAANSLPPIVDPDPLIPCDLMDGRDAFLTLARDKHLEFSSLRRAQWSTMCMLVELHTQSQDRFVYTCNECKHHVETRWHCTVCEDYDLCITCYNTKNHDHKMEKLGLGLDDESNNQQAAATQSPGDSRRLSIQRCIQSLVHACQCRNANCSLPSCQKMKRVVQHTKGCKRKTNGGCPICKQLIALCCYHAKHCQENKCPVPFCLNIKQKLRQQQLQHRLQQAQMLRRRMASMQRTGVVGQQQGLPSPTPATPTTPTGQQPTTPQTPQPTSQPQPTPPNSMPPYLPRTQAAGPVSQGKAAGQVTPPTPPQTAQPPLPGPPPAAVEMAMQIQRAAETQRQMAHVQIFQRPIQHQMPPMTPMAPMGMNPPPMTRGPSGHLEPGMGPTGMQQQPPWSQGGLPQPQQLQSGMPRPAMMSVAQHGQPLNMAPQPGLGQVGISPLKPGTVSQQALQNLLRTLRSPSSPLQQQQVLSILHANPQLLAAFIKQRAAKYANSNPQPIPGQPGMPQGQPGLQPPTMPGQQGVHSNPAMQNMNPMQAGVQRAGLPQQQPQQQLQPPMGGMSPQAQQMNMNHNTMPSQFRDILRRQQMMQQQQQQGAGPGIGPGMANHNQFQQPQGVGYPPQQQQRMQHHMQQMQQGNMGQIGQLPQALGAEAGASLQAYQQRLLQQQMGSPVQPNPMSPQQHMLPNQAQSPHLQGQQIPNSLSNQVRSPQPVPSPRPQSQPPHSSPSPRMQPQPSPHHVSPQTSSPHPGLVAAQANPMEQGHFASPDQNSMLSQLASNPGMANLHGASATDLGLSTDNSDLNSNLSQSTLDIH", "assay": "FLAG IP-MS in FLAG-tagged BCL6 knock-in SUDHL5", "assay_type": "cell-based", "conditions": "FLAG-BCL6 SUDHL5, 1 nM, 2 h", "method": "50 million FLAG-BCL6 knock-in SUDHL5 cells were treated compound or DMSO (0.1%) at indicated doses for 2 hours. Cells were lysed in NE10 buffer (20 mM HEPES (pH 7.5), 10 mM KCl, 1 mM MgCl2, 0.1% Triton X-100 (v/v), protease inhibitors (Roche), 15 mM ß-mercaptoethanol), dounced 15 times and pelleted 5 min at 500 g. Nuclei were washed in NE10 buffer and then digested with 250 units benzonase (Millipore) for 30 min rotating at 25°C. Nuclei were resuspended in NE150 buffer (NE10 supplemented with 150mM NaCl) and incubated for 20 min. Lysates were pelleted at 16,000 g for 20 min at 4°C and supernatants were immunoprecipitated by incubating with 2.5 μg FLAG M2 antibody (F1804, Millipore-Sigma) or 2.5 μg p300 (A300–358A, Bethyl Laboratories) antibody with Dynabeads Protein G (Thermo Fisher) overnight at 4°C. The IP fraction was recovered by magnetic separation followed by three washes with NE10 buffer containing 150mM–300mM NaCl but without Triton-X. For mass spectrometry analysis, the IP was then eluted from the beads with Ammonium Hydroxide, pH 11–12; 3% v/v. […]\nThe reconstituted desalted peptides were then analyzed using a nanoElute 2 UHPLC (Bruker Daltonics, Bremen, Germany) coupled to a timsTOF HT (Bruker Daltonics, Bremen, Germany) via a CaptiveSpray nano-electrospray source. […]"}
{"smiles": "CNC(=O)COc1cc2cc(Nc3nc(N4CCC(C(=O)N5CCN(CCC(=O)N6CCC(n7nc(N8CCCc9cc(-c%10cnn(C)c%10)c(C(F)F)cc98)c8c7CCN(C(=O)NC)C8)CC6)CC5)CC4)ncc3Cl)cc(OC)c2n(C)c1=O", "note": "[TCIP3]", "values": [{"measurement": "enrichment of CBP in FLAG-BCL6 IP, log2(fold change)", "setting": "vs DMSO", "value": 3.7}, {"measurement": "enrichment of p300 in FLAG-BCL6 IP, log2(fold change)", "setting": "no peptides in DMSO, imputed", "value": 3.7}]}
